Values joined by “and” are separate entries in the source; they are usually repeats but may differ in a detail not shown here. Equal entries are not always repeated. Results filed as inconclusive are left out.
Tested on: Lewis lung carcinoma i.m., BDF1 mice, T/C %
Test: NCI In Vivo Anticancer Drug Screen. Data for tumor model Lewis Lung Carcinoma (intramuscular) in B6D2F1 (BDF1) mice
Description: The antitumor activity of compounds was measured in mice bearing transplantable tumors. Survival or tumor size were measured and the results are expressed as the measurement made in the treated group (T) divided by the measurement made in the vehicle treated control group (C). The tumor model used in this assay is Lewis Lung Carcinoma (intramuscular) in B6D2F1 (BDF1) mice

[1] = endpoint: median survival time, dose: 4.0 mg/kg/injection, schedule: Q01DX009 (ip), vehicle: water, higher = longer survival
[2] = endpoint: median survival time, dose: 8.0 mg/kg/injection, schedule: Q01DX009 (ip), vehicle: water, higher = longer survival
[3] = endpoint: median survival time, dose: 100.0 mg/kg/injection, schedule: Q01DX011 (ip), vehicle: saline, higher = longer survival
[4] = endpoint: mean tumor weight (est.), dose: 37.5 mg/kg/injection, schedule: Q01DX011 (ip), vehicle: saline, higher = larger tumour
[5] = endpoint: mean tumor weight (est.), dose: 75.0 mg/kg/injection, schedule: Q01DX011 (ip), vehicle: saline, higher = larger tumour
[6] = endpoint: mean tumor weight (est.), dose: 12.5 mg/kg/injection, schedule: Q01DX011 (ip), vehicle: saline with Tween-80, higher = larger tumour
[7] = endpoint: median survival time, dose: 12.5 mg/kg/injection, schedule: Q01DX011 (ip), vehicle: saline with Tween-80, higher = longer survival

## Clc1ncnc2nc[nH]c12
endpoint: mean tumor weight (est.), dose: 6.25 mg/kg/injection, schedule: Q01DX011 (ip), vehicle: other, higher = larger tumour
  T/C: 76 % of control
endpoint: mean tumor weight (est.), dose: 12.5 mg/kg/injection, schedule: Q01DX011 (ip), vehicle: other, higher = larger tumour
  T/C: 91 % of control
endpoint: mean tumor weight (est.), dose: 25.0 mg/kg/injection, schedule: Q01DX011 (ip), vehicle: other, higher = larger tumour
  T/C: 105 % of control
endpoint: mean tumor weight (est.), dose: 50.0 mg/kg/injection, schedule: Q01DX011 (ip), vehicle: other, higher = larger tumour
  T/C: 89 % of control
endpoint: mean tumor weight (est.), dose: 100.0 mg/kg/injection, schedule: Q01DX011 (ip), vehicle: other, higher = larger tumour
  T/C: 74 % of control
endpoint: mean tumor weight, dose: 3.13 mg/kg/injection, schedule: Q01DX011 (ip), vehicle: other, higher = larger tumour
  T/C: 119 % of control
endpoint: mean tumor weight, dose: 6.25 mg/kg/injection, schedule: Q01DX011 (ip), vehicle: other, higher = larger tumour
  T/C: 103 % of control
endpoint: mean tumor weight, dose: 12.5 mg/kg/injection, schedule: Q01DX011 (ip), vehicle: other, higher = larger tumour
  T/C: 98 % of control
endpoint: mean tumor weight, dose: 25.0 mg/kg/injection, schedule: Q01DX011 (ip), vehicle: other, higher = larger tumour
  T/C: 50 % of control
endpoint: mean tumor weight, dose: 50.0 mg/kg/injection, schedule: Q01DX011 (ip), vehicle: other, higher = larger tumour
  T/C: 73 % of control
endpoint: median survival time, dose: 3.13 mg/kg/injection, schedule: Q01DX011 (ip), vehicle: other, higher = longer survival
  T/C: 96 % of control and 110 % of control
endpoint: median survival time, dose: 25.0 mg/kg/injection, schedule: Q01DX011 (ip), vehicle: other, higher = longer survival
  T/C: 96 % of control
endpoint: median survival time, dose: 50.0 mg/kg/injection, schedule: Q01DX011 (ip), vehicle: other, higher = longer survival
  T/C: 100 % of control and 116 % of control
endpoint: median survival time, dose: 100.0 mg/kg/injection, schedule: Q01DX011 (ip), vehicle: other, higher = longer survival
  T/C: 88 % of control

## Cc1c(C(=O)O)nc(/C=C/C(=O)O)[nH]c1=O
[1]
  T/C: 105 % of control
[2]
  T/C: 108 % of control
endpoint: median survival time, dose: 16.0 mg/kg/injection, schedule: Q01DX009 (ip), vehicle: water, higher = longer survival
  T/C: 108 % of control

## CCCC(=O)Nc1ncnc2c1ncn2C1OC2COP(=O)(O)OC2C1OC(=O)CCC (stereo not given)
endpoint: mean tumor weight, dose: 25.0 mg/kg/injection, schedule: Q01DX011 (ip), vehicle: saline, higher = larger tumour
  T/C: 107 % of control
endpoint: mean tumor weight, dose: 50.0 mg/kg/injection, schedule: Q01DX011 (ip), vehicle: saline, higher = larger tumour
  T/C: 106 % of control
endpoint: mean tumor weight, dose: 100.0 mg/kg/injection, schedule: Q01DX011 (ip), vehicle: saline, higher = larger tumour
  T/C: 114 % of control
endpoint: mean tumor weight, dose: 200.0 mg/kg/injection, schedule: Q01DX011 (ip), vehicle: saline, higher = larger tumour
  T/C: 96 % of control
endpoint: mean tumor weight, dose: 400.0 mg/kg/injection, schedule: Q01DX011 (ip), vehicle: saline, higher = larger tumour
  T/C: 90 % of control
endpoint: median survival time, dose: 25.0 mg/kg/injection, schedule: Q01DX011 (ip), vehicle: saline, higher = longer survival
  T/C: 118 % of control
endpoint: median survival time, dose: 50.0 mg/kg/injection, schedule: Q01DX011 (ip), vehicle: saline, higher = longer survival
  T/C: 118 % of control
[3]
  T/C: 100 % of control
endpoint: median survival time, dose: 400.0 mg/kg/injection, schedule: Q01DX011 (ip), vehicle: saline, higher = longer survival
  T/C: 104 % of control

## Cc1ccc2c(ccc(C)[n+]2C)c1
[4]
  T/C: 86 % of control
[5]
  T/C: 86 % of control

## CCCCn1cnc2c(N)ncnc21
[6]
  T/C: 81 % of control
endpoint: mean tumor weight (est.), dose: 25.0 mg/kg/injection, schedule: Q01DX011 (ip), vehicle: saline with Tween-80, higher = larger tumour
  T/C: 95 % of control
endpoint: mean tumor weight (est.), dose: 50.0 mg/kg/injection, schedule: Q01DX011 (ip), vehicle: saline with Tween-80, higher = larger tumour
  T/C: 77 % of control
[7]
  T/C: 93 % of control
endpoint: median survival time, dose: 25.0 mg/kg/injection, schedule: Q01DX011 (ip), vehicle: saline with Tween-80, higher = longer survival
  T/C: 97 % of control
endpoint: median survival time, dose: 50.0 mg/kg/injection, schedule: Q01DX011 (ip), vehicle: saline with Tween-80, higher = longer survival
  T/C: 87 % of control

## Clc1ccc2nc(CI)c(CI)nc2c1
endpoint: mean tumor weight (est.), dose: 3.12 mg/kg/injection, schedule: Q01DX011 (ip), vehicle: saline with Tween-80, higher = larger tumour
  T/C: 78 % of control
endpoint: mean tumor weight (est.), dose: 6.25 mg/kg/injection, schedule: Q01DX011 (ip), vehicle: saline with Tween-80, higher = larger tumour
  T/C: 82 % of control
[6]
  T/C: 89 % of control
endpoint: median survival time, dose: 3.12 mg/kg/injection, schedule: Q01DX011 (ip), vehicle: saline with Tween-80, higher = longer survival
  T/C: 94 % of control
endpoint: median survival time, dose: 6.25 mg/kg/injection, schedule: Q01DX011 (ip), vehicle: saline with Tween-80, higher = longer survival
  T/C: 98 % of control
[7]
  T/C: 88 % of control

## CCOC(=O)C(CS)NC(=O)CCNC(C)=O (stereo not given)
[1]
  T/C: 109 % of control
[2]
  T/C: 119 % of control
endpoint: median survival time, dose: 32.0 mg/kg/injection, schedule: Q01DX009 (ip), vehicle: water, higher = longer survival
  T/C: 113 % of control
endpoint: median survival time, dose: 64.0 mg/kg/injection, schedule: Q01DX009 (ip), vehicle: water, higher = longer survival
  T/C: 124 % of control

## CCN(CCO)CCNc1ccc(C)c2sc3ccccc3c(=O)c12
endpoint: mean tumor weight (est.), dose: 21.0 mg/kg/injection, schedule: Q01DX011 (ip), vehicle: saline, higher = larger tumour
  T/C: 69 % of control
endpoint: mean tumor weight (est.), dose: 42.0 mg/kg/injection, schedule: Q01DX011 (ip), vehicle: saline, higher = larger tumour
  T/C: 44 % of control
endpoint: median survival time, dose: 21.0 mg/kg/injection, schedule: Q01DX011 (ip), vehicle: saline, higher = longer survival
  T/C: 104 % of control
endpoint: median survival time, dose: 42.0 mg/kg/injection, schedule: Q01DX011 (ip), vehicle: saline, higher = longer survival
  T/C: 110 % of control

## ClC1(c2ccccc2)c2ccc(Br)cc2-c2cc(Br)ccc21
endpoint: mean tumor weight (est.), dose: 100.0 mg/kg/injection, schedule: Q01DX011 (ip), vehicle: saline, higher = larger tumour
  T/C: 53 % of control
endpoint: mean tumor weight (est.), dose: 200.0 mg/kg/injection, schedule: Q01DX011 (ip), vehicle: saline, higher = larger tumour
  T/C: 40 % of control
[3]
  T/C: 88 % of control
endpoint: median survival time, dose: 200.0 mg/kg/injection, schedule: Q01DX011 (ip), vehicle: saline, higher = longer survival
  T/C: 88 % of control

## NCCCNCCSP(=O)(O)O
endpoint: median survival time, dose: 300.0 mg/kg/injection, schedule: Q01DX001 (ip), vehicle: saline, higher = longer survival
  T/C: 102 % of control
endpoint: median survival time, dose: 500.0 mg/kg/injection, schedule: Q01DX001 (ip), vehicle: saline, higher = longer survival
  T/C: 92 % of control

## FC(F)(F)c1ccc(-c2ccc(OCCN3CCCC3)cc2)cc1
endpoint: mean tumor weight, dose: 3.13 mg/kg/injection, schedule: Q01DX011 (ip), vehicle: saline, higher = larger tumour
  T/C: 57 % of control
endpoint: mean tumor weight, dose: 6.25 mg/kg/injection, schedule: Q01DX011 (ip), vehicle: saline, higher = larger tumour
  T/C: 62 % of control
endpoint: median survival time, dose: 3.13 mg/kg/injection, schedule: Q01DX011 (ip), vehicle: saline, higher = longer survival
  T/C: 104 % of control
endpoint: median survival time, dose: 6.25 mg/kg/injection, schedule: Q01DX011 (ip), vehicle: saline, higher = longer survival
  T/C: 100 % of control

## N#C[C@@H]1C2C=CC(CC2)[C@H]1C#N
endpoint: mean tumor weight (est.), dose: 0.15 mg/kg/injection, schedule: Q01DX011 (ip), vehicle: saline, higher = larger tumour
  T/C: 56 % of control
endpoint: mean tumor weight (est.), dose: 0.3 mg/kg/injection, schedule: Q01DX011 (ip), vehicle: saline, higher = larger tumour
  T/C: 83 % of control
endpoint: mean tumor weight (est.), dose: 0.6 mg/kg/injection, schedule: Q01DX011 (ip), vehicle: saline, higher = larger tumour
  T/C: 98 % of control
endpoint: mean tumor weight (est.), dose: 1.2 mg/kg/injection, schedule: Q01DX011 (ip), vehicle: saline, higher = larger tumour
  T/C: 95 % of control

## Cc1ccc2c(C)c3c(ccc4ccccc43)c[n+]2c1
endpoint: mean tumor weight (est.), dose: 1.25 mg/kg/injection, schedule: Q01DX011 (ip), vehicle: saline, higher = larger tumour
  T/C: 87 % of control
endpoint: mean tumor weight (est.), dose: 2.5 mg/kg/injection, schedule: Q01DX011 (ip), vehicle: saline, higher = larger tumour
  T/C: 96 % of control
endpoint: mean tumor weight (est.), dose: 5.0 mg/kg/injection, schedule: Q01DX011 (ip), vehicle: saline, higher = larger tumour
  T/C: 72 % of control
endpoint: median survival time, dose: 1.25 mg/kg/injection, schedule: Q01DX011 (ip), vehicle: saline, higher = longer survival
  T/C: 106 % of control
endpoint: median survival time, dose: 2.5 mg/kg/injection, schedule: Q01DX011 (ip), vehicle: saline, higher = longer survival
  T/C: 110 % of control
endpoint: median survival time, dose: 5.0 mg/kg/injection, schedule: Q01DX011 (ip), vehicle: saline, higher = longer survival
  T/C: 100 % of control

## CCN(CC)CCNc1ccc(CO)c2sc3ccccc3c(=O)c12
endpoint: mean tumor weight (est.), dose: 18.75 mg/kg/injection, schedule: Q01DX011 (ip), vehicle: saline, higher = larger tumour
  T/C: 110 % of control
[4]
  T/C: 56 % of control
[5]
  T/C: 19 % of control
endpoint: median survival time, dose: 18.75 mg/kg/injection, schedule: Q01DX011 (ip), vehicle: saline, higher = longer survival
  T/C: 105 % of control
endpoint: median survival time, dose: 37.5 mg/kg/injection, schedule: Q01DX011 (ip), vehicle: saline, higher = longer survival
  T/C: 107 % of control
endpoint: median survival time, dose: 75.0 mg/kg/injection, schedule: Q01DX011 (ip), vehicle: saline, higher = longer survival
  T/C: 113 % of control

## CCCCN(CC)C(=S)S[Te](SC(=S)N(CC)CCCC)(SC(=S)N(CC)CCCC)SC(=S)N(CC)CCCC
endpoint: mean tumor weight (est.), dose: 100.0 mg/kg/injection, schedule: Q01DX011 (ip), vehicle: saline with Tween-80, higher = larger tumour
  T/C: 72 % of control
endpoint: mean tumor weight (est.), dose: 200.0 mg/kg/injection, schedule: Q01DX011 (ip), vehicle: saline with Tween-80, higher = larger tumour
  T/C: 54 % of control
endpoint: mean tumor weight (est.), dose: 400.0 mg/kg/injection, schedule: Q01DX011 (ip), vehicle: saline with Tween-80, higher = larger tumour
  T/C: 29 % of control
endpoint: median survival time, dose: 100.0 mg/kg/injection, schedule: Q01DX011 (ip), vehicle: saline with Tween-80, higher = longer survival
  T/C: 121 % of control
endpoint: median survival time, dose: 200.0 mg/kg/injection, schedule: Q01DX011 (ip), vehicle: saline with Tween-80, higher = longer survival
  T/C: 114 % of control
endpoint: median survival time, dose: 400.0 mg/kg/injection, schedule: Q01DX011 (ip), vehicle: saline with Tween-80, higher = longer survival
  T/C: 121 % of control
